These results are taken from patent publication US20100204467A1, “LANTHANIDE (III) ION COMPLEXING COMPOUNDS, LUMINESCENT LANTHANIDE (III) ION COMPLEXES AND USE THEREOF AS FLUORESCENT LABELS” (CIS BIO INTERNATIONAL, priority 2007, published 2010).

Data set [1] is described as follows: Ligand reduction potential. The class given is physicochemical. Particulars: vs n.h.e., 298K, 0.1 M NBu4ClO4, MeCN. From the text:
The quenching process with urate is believed to involve an intermediate exciplex, involving a short-lived bonding π-π interaction. This is disfavoured as the sensitising chromophore becomes less susceptible to accept electron density and is reflected in the ligand reduction potential. For compound (7), this was −1.52 V (vs n.h.e., 298K, 0.1 M NBu4ClO4, MeCN), which compares to −1.07 V for the cyclohexyl tetraazatriphenylene and −1.60 V for the 1-aza-xanthone (2). Terbium complexes of L^1 and L^2 resisted urate and ascorbate quenching more effectively than the comparator complexes.

For data set [2], the target named is human serum albumin (Homo sapiens, UniProt P02768). Kind of data set: Emission lifetime in the presence of human serum albumin, urate and ascorbate. The note with it: 0.4 mM human serum albumin, 0.1 mM sodium urate, 0.2 mM ascorbate, pH 7.4, 298K, 0.1M HEPES. How it is done:
In the presence of 0.4 mM human serum albumin, 0.1 mM sodium urate and 0.2 mM ascorbate, (pH 7.4, 298K, 0.1M HEPES), the emission lifetime of [TbL^2]^3+ was within 10% of its value in water, i.e. 2.1 ms, compared to 0.7 ms and 0.5 ms for [TbL^6]^3+ and [TbL^4]^3+ respectively under the same conditions.

Data set [3] in a line: Emission quantum yield. Particulars: quantum yields ±15%. The class given is physicochemical. The text has this: (§1) Absorption, emission and triplet energy data for these complexes are collated in Table 1.
Data set [4] relates to Chinese hamster ovarian cells. Particulars: observed previously under the same standard conditions; cited from earlier work.
Data set [5] is described as follows: Triplet energy measured on Gd analogues in frozen glass (77K). Type of data set: physicochemical. Particulars: Gd analogues in frozen glass of Et2O/isopentane/ethanol or EtOH/MeOH (2:1).
Data set [6] can be described thus: Absorption spectrum of Tb(III) complexes. The class given is physicochemical. Particulars: for γmax: absorption, Tb(III) complexes; for ε: molar extinction coefficient.
Description: as §1
The absorption spectrum of [TbL^1]

A short description of data set [7]: Terbium emission lifetime / decay rate constants in H2O and D2O. The class given is physicochemical. Particulars: lifetime ±10%.
Description: as §1

Data set [8] can be described thus: Stern-Volmer excited state quenching by urate. Type of data set: physicochemical. Particulars: pH 7.4, 0.1 M HEPES, 298K. From the text: (§2) A key issue in assessing the utility of such luminescent complexes for intracellular application is their sensitivity towards quenching by endogenous electron-rich species (e.g. urate/ascorbate) either when the complexes are free or protein bound. Accordingly, the Stern-Volmer quenching constants (KSv^−1/mM) defining their relative sensitivity to quenching can be assessed comparatively, (Table 2).

Data set [9] can be described thus: Stern-Volmer excited state quenching by iodide. Type of data set: physicochemical. Particulars: pH 7.4, 0.1 M HEPES, 298K.
Description: as §2

Data set [10] can be described thus: Stern-Volmer excited state quenching by ascorbate. The class given is physicochemical. Particulars: pH 7.4, 0.1 M HEPES, 298K.
Description: as §2

Setting [11] is: first of two columns headed kD2O^Tb.
Where [12] appears, read: second of two columns headed kD2O^Tb.

human serum albumin, sequence (P02768 25-609): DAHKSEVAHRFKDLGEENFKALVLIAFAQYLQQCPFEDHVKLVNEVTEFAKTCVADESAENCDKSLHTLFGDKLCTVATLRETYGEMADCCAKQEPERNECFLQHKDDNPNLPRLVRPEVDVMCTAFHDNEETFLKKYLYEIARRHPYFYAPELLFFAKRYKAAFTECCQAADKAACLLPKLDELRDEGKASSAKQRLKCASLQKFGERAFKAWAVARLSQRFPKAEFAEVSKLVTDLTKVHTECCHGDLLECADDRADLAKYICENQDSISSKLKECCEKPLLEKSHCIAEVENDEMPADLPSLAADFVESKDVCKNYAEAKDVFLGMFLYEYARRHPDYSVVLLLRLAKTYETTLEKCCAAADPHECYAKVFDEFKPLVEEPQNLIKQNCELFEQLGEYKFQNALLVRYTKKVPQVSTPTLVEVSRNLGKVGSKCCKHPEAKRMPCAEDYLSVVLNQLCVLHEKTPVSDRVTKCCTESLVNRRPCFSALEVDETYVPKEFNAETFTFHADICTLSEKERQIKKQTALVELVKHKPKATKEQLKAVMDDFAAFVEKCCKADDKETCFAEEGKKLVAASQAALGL

In data set [1], `CC(C)(C)c1ccc2oc3cccnc3c(=O)c2c1` [Compound 2, 7-Tert-Butyl-1-Azaxanthone] gave a ligand reduction potential of −1.60 V.

As for `CC(NC(=O)CN1CCN(CC(=O)NC(C)c2ccccc2)CCN(Cc2ccc3c(n2)c2ncccc2c2nc4c(nc32)CCCC4)CCN(CC(=O)NC(C)c2ccccc2)CC1)c1ccccc1.[Tb+3]` (stereo not shown) [[TbL^6]^3+], in data set [2], the emission lifetime was 0.7 ms. In data set [3], the nem^Tb (H2O) came out at 40%. The nuclear localisation entry in data set [4] was “tendency for nuclear localisation”. The “ET^Gd” value in [5] is 23,800 cm^−1. In addition, in data set [6], the γmax is 348 nm and the ε is given as 8,300 M^−1 cm^−1. In data set [7] (setting [11]), the “kD2O^Tb” value turned out to be 640 s⁻¹. Besides, the “kD2O^Tb” value in data set [7] (setting [12]) worked out at 580 s⁻¹.

In turn, `Cc1ccn(-c2ccc3c(=O)c4cc(C(C)(C)C)ccc4oc3n2)n1` [Compound 7, 7-Tert-Butyl-2-(N-3′-Methylpyrazole)-1-Azaxanthone] registered a ligand reduction potential in data set [1] of −1.52 V.

For “cyclohexyl tetraazatriphenylene [reference compound]”, the ligand reduction potential in data set [1] is reported as −1.07 V.

With `CC(NC(=O)CN1CCN(CC(=O)NC(C)c2ccccc2)CCN(Cc2ccc3c(=O)c4cc(C(C)(C)C)ccc4oc3n2)CCN(CC(=O)NC(C)c2ccccc2)CC1)c1ccccc1.[Tb+3]` (stereo not shown) [[TbL^4]^3+], in data set [2], the emission lifetime is listed as 0.5 ms. For the same compound, the “Ksv^−1 (urate)” value in [8] stood at 0.04 mM. Also, the nem^Tb (H2O) in data set [3] came out at 37%. Further, in [4], the nuclear localisation result is reported as “tendency for nuclear localisation”. In addition, the “Ksv^−1 (I^−)” value in [9] was 9.2 mM. Further, in data set [10], the “Ksv^−1 ascorbate” value is given as 0.37 mM. Further, the “ET^Gd” value in data set [5] is on record as 24,800 cm^−1. For the same compound, in data set [6], the γmax was found to be 335 nm and the ε is recorded as 6,900 M^−1 cm^−1. For the same compound, the “kD2O^Tb” value in data set [7] (setting [11]) was determined as 610 s⁻¹. The “kD2O^Tb” value in [7] (setting [12]) worked out at 350 s⁻¹.
